Assay: molar heat capacity at constant pressure
Details: 101.33 kPa, Crystal

O=P([O-])([O-])[O-].[Er+3] [erbium phosphate]
Details	molar heat capacity at constant pressure [J/K/mol]
48.02 K, Vacuum adiabatic calorimetry	18.68
49.64 K, Vacuum adiabatic calorimetry	19.56
50 K, Drop calorimetry	19.7
51.27 K, Vacuum adiabatic calorimetry	20.45
52.9 K, Vacuum adiabatic calorimetry	21.35
54.54 K, Vacuum adiabatic calorimetry	22.23
55 K, Drop calorimetry	22.45
56.17 K, Vacuum adiabatic calorimetry	23.13
57.81 K, Vacuum adiabatic calorimetry	24.03
59.46 K, Vacuum adiabatic calorimetry	24.96
60 K, Drop calorimetry	25.28
61.11 K, Vacuum adiabatic calorimetry	25.9
62.76 K, Vacuum adiabatic calorimetry	26.86
64.41 K, Vacuum adiabatic calorimetry	27.81
65 K, Drop calorimetry	28.13
66.06 K, Vacuum adiabatic calorimetry	28.75
67.72 K, Vacuum adiabatic calorimetry	29.67
69.38 K, Vacuum adiabatic calorimetry	30.58
70 K, Drop calorimetry	30.96
71.24 K, Vacuum adiabatic calorimetry	31.56
73.31 K, Vacuum adiabatic calorimetry	32.73
75 K, Drop calorimetry	33.73
75.38 K, Vacuum adiabatic calorimetry	33.9
77.44 K, Vacuum adiabatic calorimetry	35.09
78.64 K, Vacuum adiabatic calorimetry	35.5
79.51 K, Vacuum adiabatic calorimetry	36.27
80 K, Drop calorimetry	36.43
81 K, Vacuum adiabatic calorimetry	37.03
81.57 K, Vacuum adiabatic calorimetry	37.33
83.05 K, Vacuum adiabatic calorimetry	38
83.64 K, Vacuum adiabatic calorimetry	38.24
85 K, Drop calorimetry	39.03
85.11 K, Vacuum adiabatic calorimetry	38.94
85.72 K, Vacuum adiabatic calorimetry	39.22
87.17 K, Vacuum adiabatic calorimetry	40.21
87.79 K, Vacuum adiabatic calorimetry	40.58
89.22 K, Vacuum adiabatic calorimetry	41.36
89.86 K, Vacuum adiabatic calorimetry	41.58
90 K, Drop calorimetry	41.53
91.28 K, Vacuum adiabatic calorimetry	42.3
91.94 K, Vacuum adiabatic calorimetry	42.51
93.33 K, Vacuum adiabatic calorimetry	43.21
94.02 K, Vacuum adiabatic calorimetry	43.42
95 K, Drop calorimetry	43.93
95.39 K, Vacuum adiabatic calorimetry	44.16
96.11 K, Vacuum adiabatic calorimetry	44.4
97.45 K, Vacuum adiabatic calorimetry	45.11
99.5 K, Vacuum adiabatic calorimetry	46.06
100 K, Drop calorimetry	46.24
102.17 K, Vacuum adiabatic calorimetry	47.11
105.46 K, Vacuum adiabatic calorimetry	48.46
108.74 K, Vacuum adiabatic calorimetry	50.01
110 K, Drop calorimetry	50.59
112.02 K, Vacuum adiabatic calorimetry	51.4
115.31 K, Vacuum adiabatic calorimetry	52.75
118.6 K, Vacuum adiabatic calorimetry	54.1
120 K, Drop calorimetry	54.66
121.89 K, Vacuum adiabatic calorimetry	55.38
125.18 K, Vacuum adiabatic calorimetry	56.65
128.48 K, Vacuum adiabatic calorimetry	57.9
130 K, Drop calorimetry	58.5
131.77 K, Vacuum adiabatic calorimetry	59.15
135.06 K, Vacuum adiabatic calorimetry	60.36
138.35 K, Vacuum adiabatic calorimetry	61.56
140 K, Drop calorimetry	62.15
141.64 K, Vacuum adiabatic calorimetry	62.75
144.92 K, Vacuum adiabatic calorimetry	63.93
148.21 K, Vacuum adiabatic calorimetry	65.06
150 K, Drop calorimetry	65.63
151.5 K, Vacuum adiabatic calorimetry	66.19
154.79 K, Vacuum adiabatic calorimetry	67.31
158.07 K, Vacuum adiabatic calorimetry	68.34
160 K, Drop calorimetry	68.95
161.36 K, Vacuum adiabatic calorimetry	69.45
164.64 K, Vacuum adiabatic calorimetry	70.45
167.92 K, Vacuum adiabatic calorimetry	71.48
170 K, Drop calorimetry	72.09
171.18 K, Vacuum adiabatic calorimetry	72.5
174.46 K, Vacuum adiabatic calorimetry	73.47
177.73 K, Vacuum adiabatic calorimetry	74.42
180 K, Drop calorimetry	75.06
181 K, Vacuum adiabatic calorimetry	75.35
184.26 K, Vacuum adiabatic calorimetry	76.23
187.53 K, Vacuum adiabatic calorimetry	77.14
190 K, Drop calorimetry	77.87
190.79 K, Vacuum adiabatic calorimetry	77.99
194.05 K, Vacuum adiabatic calorimetry	78.87
197.31 K, Vacuum adiabatic calorimetry	79.82
200 K, Drop calorimetry	80.51
200.56 K, Vacuum adiabatic calorimetry	80.61
204.21 K, Vacuum adiabatic calorimetry	81.51
208.26 K, Vacuum adiabatic calorimetry	82.53
210 K, Drop calorimetry	83.03
212.31 K, Vacuum adiabatic calorimetry	83.53
216.35 K, Vacuum adiabatic calorimetry	84.52
220 K, Drop calorimetry	85.43
220.38 K, Vacuum adiabatic calorimetry	85.53
228.3 K, Vacuum adiabatic calorimetry	87.52
230 K, Drop calorimetry	87.73
232.31 K, Vacuum adiabatic calorimetry	88.39
236.31 K, Vacuum adiabatic calorimetry	89.17
240 K, Drop calorimetry	89.95
240.3 K, Vacuum adiabatic calorimetry	90.08
244.27 K, Vacuum adiabatic calorimetry	90.89
248.24 K, Vacuum adiabatic calorimetry	91.71
250 K, Drop calorimetry	92.08
252.19 K, Vacuum adiabatic calorimetry	92.54
256.13 K, Vacuum adiabatic calorimetry	93.34
260 K, Drop calorimetry	94.13
260.05 K, Vacuum adiabatic calorimetry	94.13
263.96 K, Vacuum adiabatic calorimetry	94.97
267.82 K, Vacuum adiabatic calorimetry	95.68
270 K, Drop calorimetry	96.08
271.7 K, Vacuum adiabatic calorimetry	96.34
275.56 K, Vacuum adiabatic calorimetry	97.1
279.36 K, Vacuum adiabatic calorimetry	97.78
280 K, Drop calorimetry	97.93
283.13 K, Vacuum adiabatic calorimetry	98.4
286.87 K, Vacuum adiabatic calorimetry	99.05
290 K, Drop calorimetry	99.69
290.33 K, Vacuum adiabatic calorimetry	99.68
294.03 K, Vacuum adiabatic calorimetry	100.3
297.69 K, Vacuum adiabatic calorimetry	101
300 K, Drop calorimetry	101.4
301.33 K, Vacuum adiabatic calorimetry	101.7
305.3 K, Vacuum adiabatic calorimetry	102.4
310 K, Drop calorimetry	103
311.36 K, Vacuum adiabatic calorimetry	103.5
318.34 K, Vacuum adiabatic calorimetry	104.6
320 K, Drop calorimetry	104.8
325.26 K, Vacuum adiabatic calorimetry	105.6
330 K, Drop calorimetry	106.5
332.11 K, Vacuum adiabatic calorimetry	106.5
338.88 K, Vacuum adiabatic calorimetry	107.5
340 K, Drop calorimetry	108.2
345.58 K, Vacuum adiabatic calorimetry	108.5
350 K, Drop calorimetry	109.8
400 K, Drop calorimetry	116.9
450 K, Drop calorimetry	122.8
500 K, Drop calorimetry	127.7
550 K, Drop calorimetry	131.8
600 K, Drop calorimetry	135.4
650 K, Drop calorimetry	138.4
700 K, Drop calorimetry	141
750 K, Drop calorimetry	143.3
800 K, Drop calorimetry	145.3
850 K, Drop calorimetry	147.1
900 K, Drop calorimetry	148.8
950 K, Drop calorimetry	150.2
1000 K, Drop calorimetry	151.6
1050 K, Drop calorimetry	152.8
1100 K, Drop calorimetry	154
1150 K, Drop calorimetry	155.1
1200 K, Drop calorimetry	156.1
1250 K, Drop calorimetry	157.1
1300 K, Drop calorimetry	158.1
1350 K, Drop calorimetry	158.9
1400 K, Drop calorimetry	159.8
1450 K, Drop calorimetry	160.6
1500 K, Drop calorimetry	161.4
1550 K, Drop calorimetry	162.2
1600 K, Drop calorimetry	162.9

From the NIST ThermoML archive (doi:10.1016/j.tca.2012.02.002)
